From patent US20230134760A1, “CAR AND NRF2 DUAL ACTIVATOR AGENTS FOR CYCLOPHOSPHAMIDE-BASED AND DOXORUBICIN-BASED TREATMENTS OF CANCER” (priority 2020, published 2023)

What was measured:
BT549 cells [1] = experiment: Oxidative stress imaging (DFDA) in BT549 cells; format: cell-based; conditions: BT549, DL7076 5 μM + DOX
HO-1 = HO-1 expression in H9c2 cardiomyocytes (RT-PCR, Western blot); format: cell-based, rat
Procedure: Immortalized triple negative breast cancer cell lines MDA-MB-231 and BT549 were obtained from ATCC (Rockville, Md.). Additionally, the h9c2 cell line was purchased from ATCC (Rockville, Md.). […] Human iPSC-derived cardiomyocytes were maintained in Mtesr plus and supplemented according to protocol. These cells were treated for 2 hrs or an overnight as indicated. Following a 2 hr pretreatment, cells were co-treated with DOX at indicated concentrations for 6 or 22 hours. Following the overnight treatments, RNA or protein was isolated. HPH were seeded in collagen-coated 24 well plates and pretreated for 24 hrs. BT549 were seeded on inverted coverslips. After a 24 hr pretreatment, hepatocytes were co-administered as indicated and coverslips were inserted. The cell lines were used for less than 60 passages. After 24 h treatment, HPH, BT549, MDA-MB-231, and H9c2 cells were washed and a phenol-chloroform extraction was used to isolate total RNA with the TRIzol reagent (ThermoFisher, Rockford, Ill.). Reverse transcription was performed on extracted RNA (1 μg) to produce cDNA using the High Capacity cDNA Archive kit according to manufacturer's instructions (Applied Biosystems, Foster, Calif.). PCR was performed on an ABI StepOnePlus Real-Time PCR system (Applied Biosystems) using Fast SYBR Green Master Mix (Thermofisher, Rockford, Ill.) to determine gene expression changes. Primer sequences for CYP2B6, CYP3A4, HO-1, and glyceraldehyde-3-phosphate dehydrogenase (GAPDH) are: CYP2B6, [NT] ID NO: 1) and [NT] ID NO: 2); CYP3A4, [NT] ID NO: 3) and [NT] ID NO: 4); HO-1 [NT] ID NO: 5) and [NT] ID NO: 6) GAPDH, [NT] ID NO: 7) and [NT] ID NO: 8). Quantification of expression changes was done by the 2^ΔΔCt method, normalizing to GAPDH as the housekeeping gene and determining the fold change compared to control values (n=3). Protein was harvested using cell lysis buffer (Cell Signaling Technology, Danvers, Mass.) with a complete protease inhibitor cocktail (Roche, Mannheim, Germany) prior to homogenizing via sonification. […]

cleaved caspase-3 = experiment: Cleaved caspase-3 Western blot in H9c2 cardiomyocytes; format: cell-based, rat
Source text: Protein was harvested using cell lysis buffer (Cell Signaling Technology, Danvers, Mass.) with a complete protease inhibitor cocktail (Roche, Mannheim, Germany) prior to homogenizing via sonification. Homogenized protein from treated HPH, H9c2, BT549, and MDA-MB-231 cells were resolved on NuPage Novex Bis-Tris 4-12% gels (Life Technologies) or NuPage Novex Bis-Tris 12% gel and transferred through electrophoresis onto immobilon-P polyvinylidene difluoride (PVDF) membranes. Membranes were blocked with 5% BSA or 5% milk in Tris-Buffer saline with Tween 20 (TBST). Further, membranes were incubated with specific antibodies against human CYP2B6 (1:1000, Abcam), CYP3A4 (1:1000, Millipore Sigma), HO-1 (1:1000, Abcam), cleaved caspase-3 (1:1000 Cell Signaling Technologies), Nrf2 (1:1000, Abcam), TATA-Binding Protein (1:500, Santa Cruz) β-actin (1:3000, Millipore Sigma) at 4° C. overnight. Following overnight incubation, horseradish peroxidase goat anti-mouse or anti-rabbit IgG antibodies were used for secondary incubation. Membranes were developed using SuperSignal West Pico Chemiluminescent Substrate (Thermo Scientific) or Radiance Q (Azure). Two TNBC cell lines, cardiomyocytes, and HPH protein samples were isolated and resolved on a 4-12% or 12% SDS PAGE gel followed by electrophoretic transfer to a PVDF membrane. Membranes were probed 1:1000 for CYP2B6, CYP3A4, Nrf2, cleaved caspase 3, and HO-1 using β-actin (1:3000) or TBP (1:500) as a loading control.

BT549 cells [2] = experiment: Phosphorylated H2AX imaging, BT549 cells from multi-organ co-culture; format: cell-based; conditions: CPA/DOX + DL7076
Procedure: Additionally, HPH were cultured in collagen-coated 6-well plates and pre-treated as described in the previous co-culture system. BT549 and H9c2 cells were plated on similar modified coverslips 0.8×10^5 cells and allowed to attach for 24 hours during hepatocyte pre-treatment. […] Following pre-treatment, BT549 coverslips were inserted adjacent to H9c2 coverslips over the sandwich cultured HPH as depicted in FIG. 43a. […] Both BT549 and H9c2 cells were harvested at indicated time points and assess for viability, apoptosis, and DNA damage as detailed further. H9c2 rat cardiomyocytes seeded at 0.8×10^5 in 24-well plates. […] Cells were washed 3× with PBS. […] The oxidation of DFDA to the fluorescent dichlorofluorescein was viewed using fluorescence microscopy (Nikon Eclipse Ti) with a FITC filter at […] and quantified using Brightspot detection for fluorescent detection of triplicate images and normalized to the vehicle control (0.1% DMSO). […] Phosphorylation was calculated through fluorescence intensity all normalized to the vehicle control. […] The coverslips were visualized at 10× magnification using fluorescence microscopy (Nikon Eclipse Ti) and the amount of phosphorylation was quantified as mean intensity using brightspot detection of quadruplet images of the whole well and normalized to the vehicle control (0.1% DMSO).

## O=C(NCCN=C=S)c1c(-c2ccc3ccccc3c2)nc2sccn12 [DL7076, N-(2-Isothiocyanatoethyl)-6-(naphthalen-2-yl)imidazo[2,1-b]thiazole-5-carboxamide]
BT549 cells [1]
  ROS with cotreatment: significant ROS without reduction
HO-1; H9c2, 10 μM, 24 hours, vs vehicle control
  HO-1 mRNA induction: 3- to 3.5 fold
HO-1; H9c2, Western blot
  HO-1 protein induction: robust induction in the expression of HO-1 was confirmed at a protein level
HO-1; H9c2, pretreatment, DOX 2.5 μM
  HO-1 protein expression in the presence of DOX: concentration dependent protection in the expression of HO-1
Cleaved caspase-3; H9c2, DL7076 pretreatment + DOX 2.5 μM
  cleaved caspase-3 expression with pretreatment: notably reduced in a concentration dependent manner
Cleaved caspase-3; H9c2, without DOX
  cleaved caspase-3 expression, compound alone: no expression in cleaved caspase-3
BT549 cells [2]
  H2AX phosphorylation (DNA damage): effectively enhanced the CPA/DOX-mediated DNA damage
